We go through seven compounds from patent US11976083B2, “Inhibitors of peptidylarginine deiminases” (Gilead Sciences, Inc., priority 2020, dated 2024).

The target in the test is T1, human PAD4 (Homo sapiens, UniProt Q9UM07).
T1 construct: human PAD4 (NM_012387), A2-P663, was PCR amplified; His-SUMO (N, cleaved yes); made in house; host or cells: E. coli BL21(DE3)
As to the kind of experiment: In vitro PAD4 BAEE biochemical assay. The conditions noted are these: BAEE substrate 3 mM, 5 nM PAD4, 2 mM calcium chloride; geometric mean of multiple experiments. In a few lines: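 PAD4 5 nM, CaCl2 2 mM, BAEE 3 mM final; 50 mM MOPS pH 7.6, 50 mM NaCl, 0.05% Tween-20, 2 mM DTT. Cpd + enzyme 30 min 25 °C; substrate 2 h 25 °C; EDTA stop; OPA detection 1 h. IC50 4-parameter fit.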

T1 sequence (Q9UM07 2-663): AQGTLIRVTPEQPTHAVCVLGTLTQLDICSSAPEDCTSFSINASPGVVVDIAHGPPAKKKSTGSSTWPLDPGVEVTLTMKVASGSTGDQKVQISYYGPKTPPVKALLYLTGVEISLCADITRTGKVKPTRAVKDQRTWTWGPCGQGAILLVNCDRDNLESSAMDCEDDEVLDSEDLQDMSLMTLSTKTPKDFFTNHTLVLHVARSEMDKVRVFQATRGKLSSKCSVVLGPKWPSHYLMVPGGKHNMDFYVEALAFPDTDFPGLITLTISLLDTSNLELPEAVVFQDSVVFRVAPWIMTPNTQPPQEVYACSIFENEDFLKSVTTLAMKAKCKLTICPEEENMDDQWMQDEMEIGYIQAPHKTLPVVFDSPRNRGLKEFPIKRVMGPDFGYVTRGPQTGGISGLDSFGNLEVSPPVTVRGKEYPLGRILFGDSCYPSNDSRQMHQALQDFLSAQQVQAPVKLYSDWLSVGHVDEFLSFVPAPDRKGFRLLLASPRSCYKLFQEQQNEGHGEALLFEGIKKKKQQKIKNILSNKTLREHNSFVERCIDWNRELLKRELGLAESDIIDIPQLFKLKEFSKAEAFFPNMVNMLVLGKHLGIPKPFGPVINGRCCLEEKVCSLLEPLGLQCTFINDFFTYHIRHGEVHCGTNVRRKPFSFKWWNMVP

Take `COc1cc(C(=O)N2CC[C@@H](OC)[C@@H](N)C2)cc2nc(-c3cc4ccc5nc4n3CCCCCCNC(=O)c3ncccc3-5)n(C)c12` [Example 675, 17-[5-[(3~{S},4~{R})-3-amino-4-methoxy-piperidine-1-carbonyl]-7-methoxy-1-methyl-benzimidazol-2-yl]-6,9,16,22-tetrazatetracyclo [14.5.2.0^{2,7}.0^{19,23}] tricosa-1(22),2,4,6,17,19(23), 20-heptaen-8-one]: the IC50 (in general, the concentration needed to halve the response being measured) was 0.559 µM.

Regarding `COc1ccc2c(n1)CCCCCn1c(-c3nc4cc(C(=O)N5C[C@H](N)[C@@H]6CC[C@H]5C6)cc(F)c4n3C3CC3)cc3ccc(nc31)[C@@H](C)NC2=O` [Example 685, (2~{R})-17-[5-[(1~{S},4~{R}, 5~{R})-4-amino-2-azabicyclo[3.2.1]octane-2-carbonyl]-1-cyclopropyl-7-fluoro-benzimidazol-2-yl]-8-methoxy-2-methyl-3,9,16,22-tetrazatetracyclo [14.5.2.0^{5,10}.0^{19, 23}]tricosa-1(22),5(10), 6,8,17,19(23),20-heptaen-4-one], the IC50 turned out to be 0.013 µM.

Turning to `COc1cc(C(=O)N2CCC[C@@H](N)C2)cc2nc(-c3cc4ccc5nc4n3C[C@H]3C[C@H]3CCCCC(=O)N[C@@H]5C)n(C)c12` [Example 118, (3~{S},5~{R},12~{R})-18-[5-[(3~{R})-3-aminopiperidine-1-carbonyl]-7-methoxy-1-methyl-benzimidazol-2-yl]-12-methyl-1,11,20-triazatetracyclo[11.5.2.0^{3,5}.0^{16,19}] icosa-13(20),14,16(19),17-tetraen-10-one], the half-maximal inhibitory concentration (IC50) amounted to 0.041 µM.

Take `COc1cc(C(=O)N2C[C@H](N)[C@@H]3CC[C@H]2C3)cc2nc(-c3cc4ccc5nc4n3CC(F)(F)CCCOC3(CC3)C(=O)N[C@@H]5C)n(C)c12` [Example 761, (11~{R})-17-[5-[(1~{S},4~{R}, 5~{R})-4-amino-2-azabicyclo [3.2.1]octane-2-carbonyl]-7-methoxy-1-methyl-benzimidazol-2-yl]-3,3-difluoro-11-methyl-spiro[7-oxa-1,10,19-triazatricyclo[10.5.2.0^ {15,18}]nonadeca-12(19), 13,15(18),16-tetraene-8,1′-cyclopropane]-9-one]: the IC50 was determined as 0.067 µM.

Consider `COc1cc(C(=O)N2[C@H]3CC[C@@H]2[C@H](N)C3)cc2nc(-c3cc4ccc5nc4n3CCCCCC[C@@H](OC)C(=O)N[C@@H]5C)c(C)n12` (single isomer, unassigned) [Example 334, (8−{R},11−{R})-17-[7-[(1−{R},2˜{R},4˜{S})-2-amino-7-azabicyclo[2.2.1]heptane-7-carbonyl]-5-methoxy-3-methyl-imidazo[1,2-a]pyridin-2-yl]-8-methoxy-11-methyl-1,10,19-triazatricyclo[10.5.2^{15,18}]nonadeca-12(19),13,15(18),16-tetraen-9-one], for which the 50% inhibitory concentration (IC50) amounted to 0.039 µM.

In the case of `COc1cc(C(=O)N2[C@H]3CC[C@@H]2[C@H](N)C3)cc2nc(-c3cc4ccc5nc4n3CCCCCCC(C)(C)C(=O)N[C@@H]5C)n(C3CC3)c12` [Example 253, (11~{R})-17-[5-[(1~{R},2~{R},4~{S})-2-amino-7-azabicyclo[2.2.1]heptane-7-carbonyl]-1-cyclopropyl-7-methoxy-benzimidazol-2-yl]-8,8,11-trimethyl-1,10,19-triazatricyclo[10.5.2.0^{15,18}]nonadeca-12(19),13,15(18),16-tetraen-9-one], the IC50 worked out at 0.103 µM.

As for `COc1cc(C(=O)N2[C@H]3CC[C@@H]2[C@H](N)C3)cc2nc(-c3cc4ccc5cc4n3CCCCCCC3(CC3)C(=O)N[C@@H]5C)n(C3CC3)c12` [Example 225, (11~{R})-17-[5-[(1~{R},2~{R},4~{S})-2-amino-7-azabicyclo[2.2.1]heptane-7-carbonyl]-1-cyclopropyl-7-methoxy-benzimidazol-2-yl]-11-methyl-spiro[1,10-diazatricyclo[10.5.2.0^{15,18}]nonadeca-12(19),13,15(18),16-tetraene-8,1′-cyclopropane]-9-one], the IC50 stood at 0.073 µM.
